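Assay format: 96-well plates, 48-hour exposure. GI50 marks 50% less growth. At the TGI there is no net growth.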
What was measured:
Assay in all cases: NCI tumour cell line growth inhibition, 48 h
NCI/ADR-RES ovarian = test system: NCI/ADR-RES ovarian
NCI-H522 lung = test system: NCI-H522 lung
NCI-H226 lung = test system: NCI-H226 lung
RXF 393 renal = test system: RXF 393 renal
SF-295 CNS = test system: SF-295 CNS
SK-MEL-5 melanoma = test system: SK-MEL-5 melanoma
MDA-MB-435 = test system: MDA-MB-435
A498 renal = test system: A498 renal
UO-31 renal = test system: UO-31 renal
M14 melanoma = test system: M14 melanoma
UACC-257 melanoma = test system: UACC-257 melanoma
HT29 colon = test system: HT29 colon
KM12 colon = test system: KM12 colon
HS 578T breast = test system: HS 578T breast
OVCAR-5 ovarian = test system: OVCAR-5 ovarian
COLO 205 colon = test system: COLO 205 colon
HOP-62 NSCLC = test system: HOP-62 NSCLC
SNB-75 CNS = test system: SNB-75 CNS
U251 CNS = test system: U251 CNS
SF-268 CNS = test system: SF-268 CNS
MDA-MB-231 breast = test system: MDA-MB-231 breast
K-562 leukemia = test system: K-562 leukemia
T-47D breast = test system: T-47D breast
TK-10 renal = test system: TK-10 renal
786-0 renal = test system: 786-0 renal
HCT-15 colon = test system: HCT-15 colon
A549 NSCLC = test system: A549 NSCLC
UACC-62 melanoma = test system: UACC-62 melanoma
RPMI-8226 leukemia = test system: RPMI-8226 leukemia
SW-620 colon = test system: SW-620 colon
OVCAR-8 ovarian = test system: OVCAR-8 ovarian
MOLT-4 leukemia = test system: MOLT-4 leukemia
EKVX NSCLC = test system: EKVX NSCLC
BT-549 breast = test system: BT-549 breast
SN12C renal = test system: SN12C renal
OVCAR-4 ovarian = test system: OVCAR-4 ovarian
SF-539 CNS = test system: SF-539 CNS
NCI-H23 lung = test system: NCI-H23 lung
PC-3 prostate = test system: PC-3 prostate
LOX IMVI melanoma = test system: LOX IMVI melanoma
MCF7 breast = test system: MCF7 breast
IGROV1 ovarian = test system: IGROV1 ovarian
ACHN renal = test system: ACHN renal
DU-145 prostate = test system: DU-145 prostate
HCT-116 colon = test system: HCT-116 colon
SK-MEL-28 melanoma = test system: SK-MEL-28 melanoma
SNB-19 CNS = test system: SNB-19 CNS
MALME-3M melanoma = test system: MALME-3M melanoma
HCC-2998 colon = test system: HCC-2998 colon
HOP-92 NSCLC = test system: HOP-92 NSCLC
CCRF-CEM leukemia = test system: CCRF-CEM leukemia
CAKI-1 renal = test system: CAKI-1 renal
NCI-H460 lung = test system: NCI-H460 lung
OVCAR-3 ovarian = test system: OVCAR-3 ovarian
SK-OV-3 ovarian = test system: SK-OV-3 ovarian
SK-MEL-2 melanoma = test system: SK-MEL-2 melanoma

With `CCCC1CCC(O)(C(C)(O)C(=O)NC2C(=O)N3NCCCC3C(=O)N(O)C(C)C(=O)N3NCCCC3C(=O)N3NCC(O)CC3C(=O)NC(C)C(=O)OC2C(C)C)OC1CC` (configuration not stated) the TGI (NCI/ADR-RES ovarian) was > 5.53 µM, the GI50 (NCI-H522 lung) was > 25 µM and the TGI (NCI-H522 lung) was > 25 µM. For the same molecule, the GI50 (NCI-H226 lung) was > 25 µM, the TGI (NCI-H226 lung) was > 25 µM and the GI50 (RXF 393 renal) was > 25 µM. For the same molecule, the TGI (RXF 393 renal) was > 25 µM.
Molecule `Cc1ccc2[nH]c(C(=O)NN3C(=O)CSC34CCCC(C)C4)c(-c3ccccc3)c2c1` (configuration not stated) has a GI50 (SF-295 CNS) of 17.2 µM, a TGI (SF-295 CNS) of 33.5 µM and a GI50 (SK-MEL-5 melanoma) of 17.4 µM. The TGI (SK-MEL-5 melanoma) was 34.9 µM, the GI50 (MDA-MB-435) was 18 µM and the TGI (MDA-MB-435) was 34.8 µM. It also gave a GI50 (A498 renal) of 17.5 µM, a TGI (A498 renal) of 36.3 µM and a GI50 (UO-31 renal) of 0.0274 µM. For the same molecule, the TGI (UO-31 renal) was 10.6 µM, the GI50 (M14 melanoma) was 18.8 µM and the TGI (M14 melanoma) was 35.5 µM. It also gave a GI50 (UACC-257 melanoma) of 19.2 µM, a TGI (UACC-257 melanoma) of 35 µM and a GI50 (HT29 colon) of 13.8 µM. For the same molecule, the TGI (HT29 colon) was 29.4 µM, the GI50 (KM12 colon) was 16.2 µM and the TGI (KM12 colon) was 34.3 µM. For the same molecule, the GI50 (HS 578T breast) was 28.2 µM, the TGI (HS 578T breast) was 68 µM and the GI50 (OVCAR-5 ovarian) was 18.3 µM. The TGI (OVCAR-5 ovarian) was 34.8 µM, the GI50 (COLO 205 colon) was 17.5 µM and the TGI (COLO 205 colon) was 35.4 µM. It also gave a GI50 (HOP-62 NSCLC) of 19.2 µM, a TGI (HOP-62 NSCLC) of 35.1 µM and a GI50 (SNB-75 CNS) of 17.1 µM. For the same molecule, the TGI (SNB-75 CNS) was 34.6 µM, the GI50 (U251 CNS) was 17.3 µM and the TGI (U251 CNS) was 33.6 µM. For the same molecule, the GI50 (SF-268 CNS) was 15.6 µM, the TGI (SF-268 CNS) was 32.5 µM and the GI50 (NCI-H522 lung) was 11.9 µM. The TGI (NCI-H522 lung) was 25.6 µM, the GI50 (MDA-MB-231 breast) was 17.2 µM and the TGI (MDA-MB-231 breast) was 34 µM. For the same molecule, the GI50 (NCI-H226 lung) was 18.4 µM, the TGI (NCI-H226 lung) was 35.2 µM and the GI50 (K-562 leukemia) was 12.7 µM. The TGI (K-562 leukemia) was 39.2 µM, the GI50 (T-47D breast) was 20.3 µM and the TGI (T-47D breast) was 55.2 µM. It also gave a GI50 (TK-10 renal) of 17.2 µM, a TGI (TK-10 renal) of 34.7 µM and a GI50 (786-0 renal) of 19.6 µM. The TGI (786-0 renal) was 39.3 µM, the GI50 (HCT-15 colon) was 18.3 µM and the TGI (HCT-15 colon) was 37.2 µM. For the same molecule, the GI50 (A549 NSCLC) was 15.2 µM, the TGI (A549 NSCLC) was 30.5 µM and the GI50 (UACC-62 melanoma) was 13.9 µM. For the same molecule, the TGI (UACC-62 melanoma) was 29.2 µM, the GI50 (RXF 393 renal) was 5.85 µM and the TGI (RXF 393 renal) was 20.3 µM. For the same molecule, the GI50 (RPMI-8226 leukemia) was 13.7 µM, the TGI (RPMI-8226 leukemia) was 31.5 µM and the GI50 (SW-620 colon) was 25.6 µM. For the same molecule, the TGI (SW-620 colon) was 67.1 µM, the GI50 (OVCAR-8 ovarian) was 15.6 µM and the TGI (OVCAR-8 ovarian) was 32.9 µM. The GI50 (MOLT-4 leukemia) was 8.77 µM, the TGI (MOLT-4 leukemia) was 31.9 µM and the GI50 (EKVX NSCLC) was 24.2 µM. For the same molecule, the TGI (EKVX NSCLC) was 58.8 µM, the GI50 (BT-549 breast) was 19.5 µM and the TGI (BT-549 breast) was 36.5 µM. For the same molecule, the GI50 (SN12C renal) was 16.6 µM, the TGI (SN12C renal) was 32.2 µM and the GI50 (OVCAR-4 ovarian) was 18.4 µM. It also gave a TGI (OVCAR-4 ovarian) of 40.2 µM, a GI50 (SF-539 CNS) of 21 µM and a TGI (SF-539 CNS) of 39.4 µM. For the same molecule, the GI50 (NCI-H23 lung) was 20 µM, the TGI (NCI-H23 lung) was 36 µM and the GI50 (PC-3 prostate) was 14.2 µM. For the same molecule, the TGI (PC-3 prostate) was 29.6 µM, the GI50 (LOX IMVI melanoma) was 19.8 µM and the TGI (LOX IMVI melanoma) was 37.1 µM. For the same molecule, the GI50 (MCF7 breast) was 15.4 µM, the TGI (MCF7 breast) was 38.5 µM and the GI50 (IGROV1 ovarian) was 0.0485 µM. For the same molecule, the TGI (IGROV1 ovarian) was 12 µM, the GI50 (ACHN renal) was 18.3 µM and the TGI (ACHN renal) was 36.1 µM. For the same molecule, the GI50 (DU-145 prostate) was 18.7 µM, the TGI (DU-145 prostate) was 42.4 µM and the GI50 (HCT-116 colon) was 14.6 µM. The TGI (HCT-116 colon) was 31 µM, the GI50 (SK-MEL-28 melanoma) was 19.7 µM and the TGI (SK-MEL-28 melanoma) was 37.6 µM. The GI50 (SNB-19 CNS) was 18.6 µM, the TGI (SNB-19 CNS) was 36.6 µM and the GI50 (MALME-3M melanoma) was 18.3 µM. It also gave a TGI (MALME-3M melanoma) of 34.7 µM, a GI50 (HCC-2998 colon) of 14.5 µM and a TGI (HCC-2998 colon) of 28.8 µM. The GI50 (HOP-92 NSCLC) was 13.1 µM, the TGI (HOP-92 NSCLC) was 28.3 µM and the GI50 (CCRF-CEM leukemia) was 10.8 µM. It also gave a TGI (CCRF-CEM leukemia) of 31.8 µM, a GI50 (CAKI-1 renal) of 15.5 µM and a TGI (CAKI-1 renal) of 33.8 µM. For the same molecule, the GI50 (NCI-H460 lung) was 18.1 µM, the TGI (NCI-H460 lung) was 38.4 µM and the GI50 (OVCAR-3 ovarian) was 13.8 µM. For the same molecule, the TGI (OVCAR-3 ovarian) was 30.3 µM, the GI50 (SK-OV-3 ovarian) was 21.5 µM and the TGI (SK-OV-3 ovarian) was 48.3 µM. The GI50 (SK-MEL-2 melanoma) was 9.12 µM and the TGI (SK-MEL-2 melanoma) was 23.1 µM.

Reference: PubChem BioAssay (NCI)
